Settings: 1008.1 K; Crystal; Closed cell (Static) method

O=C([O-])[O-].[Li+].[Li+] [lithium carbonate]
vapor or sublimation pressure: 1.552 kPa
